Assays:
[1] = Lipid titration, peptide-membrane partition model, Gibbs free energy; type: physicochemical; conditions: 5 μM peptide, varying 50 nm POPC liposomes
Procedure: Samples containing 5 μM of peptides at pH 8 and pH 3, and varying concentrations of lipids of the 50 nm POPC liposomes were prepared. The fluorescence spectra of peptides in all samples were measured at 280 nm excitation at 25 °C. A series of POPC blanks with the same concentrations of lipids were measured with the same instrument settings and were subtracted from the corresponding fluorescence spectra of peptides in the presence of POPC. The areas under the emission spectra were calculated and the values were normalized to the first point (the emission of the peptide in the absence of POPC). The titration data were fitted by the peptide-membrane partition model to calculate the mole-fraction partition coefficient, K
where F0 is the fluorescence intensity at zero concentration of lipids (in our case F0 = 1); ΔF if the fluorescence increase in the result of the titration with lipids; Clipids is the concentration of lipids; W is the molar concentration of water (55.3 M). Nonlinear least squares curve fitting procedure using Levenberg-Marquardt algorithm was implemented in Origin 8.5.0 SR1. The Gibbs free energy (ΔG) was calculated according to the equation: […]
where R is the gas constant and T is the temperature in Kelvin.

[2] = Calculated weak-acid distribution Ci/Ce between inner and outer leaflets; conditions: pKa 5.7
Source text: Thus, cyclic peptides could be considered as a weak acid with multiple protonatable groups, which can diffuse across the bilayer. For weak acids, the intracellular-extracellular distribution, Ci/Ce, should be calculated according to the following equation: […]
where pHi and pHe are the intracellular and extracellular pH values, respectively. Since the cyclic peptides have affinity to the membrane, we consider Ci and Ce as the concentrations of the peptide on inner and outer leaflets, respectively. […] However, the same ratio increases to 4.5, 7.8, and 10.9 if extracellular pHe would be 6.5, 6.2 and 6.0, respectively. We assume that the symmetrical WE peptides have the same mechanism of action as an asymmetric peptide, however they have less favorable localization of Trp and Glu residues, which reduces their ability to accumulate at the inner leaflet of bilayer of cellular membranes and target acidic tumors. Leu-containing peptides are less advantageous due to their reduced affinity to the headgroup part of the bilayer and high affinity to the center of the membrane.

O=C(O)CC[C@@H]1NC(=O)[C@H](CS)NC(=O)[C@H](Cc2c[nH]c3ccccc23)NC(=O)[C@H](Cc2c[nH]c3ccccc23)NC(=O)[C@H](Cc2c[nH]c3ccccc23)NC(=O)[C@H](Cc2c[nH]c3ccccc23)NC(=O)[C@H](Cc2c[nH]c3ccccc23)NC(=O)[C@H](CCC(=O)O)NC(=O)[C@H](CCC(=O)O)NC(=O)[C@H](CCC(=O)O)NC1=O [c[E4W5C]]
additional free energy released at low pH ([1]; pH 3 versus pH 8, 25 °C): about 0.7 kcal/mol
free energy released on partitioning into the lipid bilayer at pH 8 ([1]; pH 8, 25 °C, partition model): About 7.3 kcal/mol
concentration ratio at the inner and outer leaflets, Ci/Ce ([2]; pHe 6.0, pHi = 7.2): 10.9
concentration ratio at the inner and outer leaflets, Ci/Ce ([2]; pHe 6.2, pHi = 7.2): 7.8
concentration ratio at the inner and outer leaflets, Ci/Ce ([2]; pHe 6.5, pHi = 7.2): 4.5
concentration ratio at the inner and outer leaflets, Ci/Ce ([2]; pHe = 7.4, pHi = 7.2): 0.6

— paper PMC4981864, “Novel pH-Sensitive Cyclic Peptides” (Scientific Reports, 2016)
